Experimental data reported in a melting point compilation (Tetko et al.; mined from patent text by program, amines drawn as free bases though some values may be those of a salt).

Row | Structure (SMILES) | melting point [°C]
1 | O=C(NCc1ccccc1)c1cc(N2CCN(Cc3ccc(F)cc3)C2=O)n[nH]1 | 262 to 263
2 | O=C1NC(Cc2cccc(OC(F)(F)C(F)F)c2)C(c2ccc(Oc3ccccc3)cn2)O1 (centres undefined) | 87 to 88
3 | CCCC1Oc2cc(OC)c(Cl)c(Cl)c2C1=O (centres undefined) | 90 to 92
4 | CNC(=S)NCCCSc1nnnn1C | 99 to 101
5 | FC(F)(F)c1ccc(-c2cc(C(F)(F)F)c(Br)nn2)cc1 | 123 to 125
6 | CCCCc1c(C(=O)OCC)sc2ccc([N+](=O)[O-])cc12 | 92 to 93
7 | CN(C)C(=O)Nc1snc(S(C)=O)c1C#N (centres undefined) | 178 to 179
8 | CN1N=C(c2ccc(F)cc2)c2ccc(C#N)cc2CS1(=O)=O | 284 to 285
9 | CNC(=O)c1cc2c(Oc3ccc(COCCOC)cc3)cncc2s1 | 133 to 134
10 | CC(=O)NC[C@H]1CN(c2ccc(N3CCC(Cc4noc(C)n4)CC3)c(F)c2)C(=O)O1 | 136 to 138
11 | CC(C)(C)OC(=O)Nc1cc(OCC#N)c(I)cc1[N+](=O)[O-] | 125
12 | Cn1cc(C2CCC(=O)C2)c2cc(F)ccc21 (centres undefined) | 104 to 105
13 | Nc1nc(N)nc(-c2cccc(-n3cccc3)c2)n1 | 164 to 170
14 | CS(=O)(=O)OCCOCCOC(=O)Cc1ccccc1Nc1c(Cl)cccc1Cl | 87
15 | CCOc1cc(Cc2cnc(N)nc2N)cc(OCC)c1C(C)=O | 229 to 231
16 | CC(C)(O)c1ccc(CNC(=O)c2cccnc2Oc2ccc(F)cc2F)cc1 | 92 to 94
17 | CCOC(=O)COc1ccc(Cc2ccc(O)cc2)c(Cl)c1Cl | 102 to 103
18 | Cc1ccc(C(=O)c2cc(C)n(C)c2)cc1 | 117 to 119
19 | CCOCc1nc2c(N)nc3cc(-c4cccnc4)ccc3c2n1CCNS(C)(=O)=O | 233 to 235
20 | CSC(=N[N+](=O)[O-])N(Cc1cnc(Cl)s1)C(C)=O | 77 to 78
21 | NCCc1ccc(N)cn1 | 42 to 45
22 | CCCCCCC1=C(Br)C(O)(CO)NC1=O (centres undefined) | 134 to 135
23 | COCCCn1c(CO)c(Br)c2c3c(c(-c4ccccc4Cl)cc21)C(=O)NC3=O | 178 to 180
24 | COc1cc(Nc2nccc(-c3ccc(NC4CCCCC4O)nc3)n2)cc(OC)c1OC (centres undefined) | 147 to 148
25 | COC(=O)C(C)(C)S(=O)(=O)N1CC=C(c2ccc(Br)c(C)c2)CC1 | 100 to 101
26 | CN1CCN(C2=Nc3ccc(Cl)cc3Cn3cccc32)CC1 | 186 to 188

Row | Structure (SMILES) | melting point [°C]
27 | COc1cc(NC(N)=S)cc(OC)c1OC | 203 to 205
28 | O=C1NN=C(c2ccc(C3CCCCC3)cc2)C2CC12 (centres undefined) | 211 to 212
29 | CCCCC(Cn1cnc([N+](=O)[O-])c1)c1ccc(Cl)cc1Cl (centres undefined) | 67 to 69
30 | O=[N+]([O-])c1ccccc1C=[N+]([O-])c1cccc(CO)c1 | 97 to 99
31 | CCCN1CCN(CCCOc2cc3ncc(C#N)c(Nc4cc(OC)c(Cl)cc4Cl)c3cc2OC)CC1 | 97 to 101
32 | CSc1nnc(-c2ccco2)s1 | 128
33 | CC12CCCC1C1CC=C3CC(O)CC(O)C3(C)C1CC2 (centres undefined) | 182 to 183
34 | COc1ccc(Sc2cccc(C(=O)O)c2)cc1 | 121 to 123
35 | CON=C(C)c1ccc(N2CC(CO)OC2=O)cc1 (centres undefined) | 149 to 150
36 | CCOC(=O)C(C)(C)Oc1ccc(-c2ccc(CCNC(=O)Cc3ccccc3)cc2)cc1 | < 20
37 | O=C(O)Cc1ccc(NC(=O)C(COc2ccc(Cl)cc2)NS(=O)(=O)c2ccc(Cl)cc2)cc1 (racemic) | 205 to 207
38 | COc1ccc(NS(=O)(=O)CC(=O)O)cc1[N+](=O)[O-] | 154 to 156
39 | Cc1nn(-c2c(Cl)cc(C(F)(F)F)cc2Cl)c(N)c1SC#N | 134
40 | Clc1ccc(NC2CCC3(CCNCC3)CC2)cc1Cl | 128 to 132
41 | CCOc1cc(-c2cnc3[nH]cc(C(=O)C(C)(C)C)c3n2)cc(N2CCCC2)c1 | 236 to 237
42 | C=C(C(=O)O)c1ccc(-c2ccccc2)c(F)c1 | 169 to 172
43 | CCCNc1cc(Nc2ccc(OC)cc2)ncn1 | 194 to 196
44 | CC(C)(C)c1cc(CCc2cc(F)cc(F)c2NC(=O)NC23CC4CC(CC(C4)C2)C3)cc(C(C)(C)C)c1O | 218 to 220
45 | CCOC1CC(n2cc(CC)c(=O)[nH]c2=O)OC1CN (centres undefined) | 122 to 123
46 | CC(=O)Nc1ccc(C=[N+]([O-])Cc2ccccc2)cc1 | 231 to 238
47 | O=C(c1ccccc1)c1cccc(Cc2c(O)c3ccc(Cl)cc3[nH]c2=O)c1 | 294 to 295
48 | COC(=O)N1CCC[C@@H](OC)[C@@H]1CC(=O)Cn1cnc2c(Cl)c(Cl)sc2c1=O (relative stereo) | 58 to 62
49 | CCOCC1N=NC(=S)N1C (centres undefined) | 137 to 138
50 | NC(=O)c1ccc(F)c2c1CC(N(CCCc1c[nH]c3ccc(F)cc13)CC1CC1)CO2 (centres undefined) | 121
51 | CCC(=O)C1C(=O)CC(C#N)CC1=O (centres undefined) | 70 to 74
52 | Cc1ccc(S(=O)(=O)N2[C@H](CCCNS(C)(=O)=O)CC[C@@H]2c2ccc(F)cc2)cc1 (racemic) | 123

Row | Structure (SMILES) | melting point [°C]
53 | Cc1[nH]n(-c2ccccc2)c(=O)c1C(=O)C(C)C | 61 to 62
54 | CC1=CC(C)(C)Cc2c1nc(C(C)C)c(CO)c2-c1ccc(F)cc1 | 112 to 114
55 | COCC(=O)NCc1cccc2c1C(=O)N(C1CCC(=O)NC1=O)C2=O (centres undefined) | 196 to 198
56 | CC(=O)Nc1ccccc1N1CCc2cc(Cl)ccc21 | 136 to 138
57 | CC1Cc2cc(N3C[C@H](CO)OC3=O)ccc2N1C(=O)OCc1ccccc1 (some centres undefined) | 144 to 145
58 | CC(C)=CCN1Cc2cccc3[nH]c(=S)n(c23)CC1C (centres undefined) | 128
59 | CC(C)(C)c1cccc2c1OC(CNC(=O)OCc1ccccc1)C2 (centres undefined) | 73 to 76
60 | CCN1CCN(c2ccc(C(=O)NCCCCCCCCCCCCO[N+](=O)[O-])cn2)CC1 | 71 to 72
61 | CN(C)C(=O)c1nc2n(n1)-c1ccccc1N(c1ccccc1)C2 | 150 to 165
62 | C=CCN(CC=C)c1nc(N(CC=C)CC=C)nc(N2CCN(C(=O)n3ccnc3)CC2)n1 | 94 to 95
63 | COC(=O)c1ccccc1NCc1ccncc1 | 86
64 | COc1ccc(-c2cc(COc3cccc4cc(NS(=O)(=O)C(F)(F)F)ccc34)ccc2F)cc1 | 132 to 133
65 | CC(=O)c1cc(C(C)=O)c(O)cc1N | 227 to 230
66 | CSc1nc2c(Cl)ccc(-n3c(=O)cc(C(F)(F)F)n(C)c3=O)c2s1 | 79 to 81
67 | CCn1nc(-c2ccccc2)c(C(C)=O)c(Nc2cccc3nc(C)ccc23)c1=O | 204 to 205
68 | CC(C)(C)c1cc(-c2cncn2CCCCl)cc(C(C)(C)C)c1O | 178 to 179
69 | CS(=O)(=O)Nc1cc(C(=O)O)c2c(c1)C(C(=O)O)CCN2 (centres undefined) | 188 to 190
70 | COc1cc2c(cc1Nc1ncc(Cl)c(Nc3cc(C(N)=O)ccc3OC)n1)CCN(C(=O)CN(C)C)CC2 | 226 to 233
71 | CCOC(=O)c1cc(=O)c2c(CC)cc(Cl)cc2[nH]1 | 182 to 183
72 | CN1CCN(Cc2cccc(-c3cc4c(Nc5cccc6[nH]ccc56)c(C#N)cnc4s3)c2)CC1 | > 245
73 | C#Cc1cccc(Nc2nc(Nc3cccc(C#C)c3)nc(-c3ccccc3)n2)c1 | 210
74 | CCC(C#N)=C1CCN(c2ccc(N3C[C@H](CNC(C)=O)OC3=O)cc2F)CC1 | 185 to 186
75 | COc1cc(CCCO)ccc1OCc1coc(/C=C/c2ccccc2)n1 | 95 to 96
76 | C#CCOC(=O)c1cc(C)oc1C | 35 to 37
77 | CCOC(C)=C(C#N)C(=O)Nc1cccc(Cl)c1 | 166 to 168
78 | CCn1cc(C(=O)C(Cl)Cl)c(=O)c(-c2cccc(C(F)(F)F)c2)c1 | 108 to 110

Row | Structure (SMILES) | melting point [°C]
79 | COc1cc(CSc2ccc(N)nn2)cc(OC)c1OC | 143 to 146
80 | NC[C@H]1C=Cc2cc(F)cc(-c3ccccc3Cl)c2O1 | 145 to 147
81 | CC(C)CNC(=O)c1cccc(-c2ccnc3c(C(=O)c4cccs4)cnn23)c1 | 174 to 177
82 | N#Cc1ccc2c(c1)c1cc(C#N)ccc1n2Cc1ccccc1 | 265 to 267
83 | Cc1c(NC(=O)c2ccc(OCC3CC3)cc2)ccc2[nH]c(CNC3CCCC3)cc12 | 207 to 208
84 | CC(=O)C1Cc2c(nc3ccccc3c2C)C(N2CCOCC2)CN1 (centres undefined) | 179
85 | Cc1cc(C)c(Nc2nc(C)ccc2S(=O)(=O)c2ccc(OCCCO)cc2)c(C)c1 | 152 to 153
86 | COC(=O)c1ccc(NCc2ccc(F)cc2)cn1 | 107 to 108
87 | Cc1cc(C2=NNC(=O)SC2C)cc2c1NC(=O)C2(C)C (centres undefined) | 260
88 | Cc1c(C(=O)c2ccccc2)ccc(O)c1CC(=O)O | 212
89 | O=C1C=C(O)CC(CCC2CCCC2)(C2CCCC2)O1 (centres undefined) | 130 to 132
90 | Cc1cn2nc(-c3ccccc3)nc2cc1N | > 250
91 | Cc1[nH]c2ccc(OCCCCBr)cc2c1C | 119 to 120
92 | CC(CCCC1(C(=O)NCC(F)(F)F)c2ccccc2-c2ccccc21)N1CCC(NC(=O)OC(C)(C)C)CC1 (centres undefined) | 58 to 60
93 | O=C1NC(c2ccccc2)=N/C1=C\c1c[nH]c2ncc(Cl)cc12 | 250
94 | CC(=O)Nc1ccc(S(=O)(=O)c2cccc3cnccc23)cc1 | 240 to 244
95 | CN(Cc1csc(N)c1C(=O)c1ccc(Cl)cc1)c1ccccc1 | 129 to 131
96 | O=Cc1cc([N+](=O)[O-])c(CCl)cc1O | 135
97 | CCCCOc1c(CNC(=O)OC(C)(C)C)n(CC(C)C)c(=O)c2ccc(/C=C/c3cscn3)cc12 | 141 to 142
98 | C1=CC2=NCCC3CCOC23C=C1 (centres undefined) | 170 to 171
99 | O=c1[nH]c(=O)n(C2CC(O)C(COCc3ccccc3)O2)cc1F (centres undefined) | 129 to 130
100 | CC(C)c1cc(C=C2C(=O)NC(=O)N2C)cc(C(C)C)c1O | 197 to 208
101 | O=c1oc2ccccc2c(O)c1CCCCC1CCCCC1 | 160 to 161
102 | COc1ccc(S(=O)(=O)CC(O)(CS(=O)(=O)c2ccc(OC)cc2)C(=O)NO)cc1 | 75 to 80
103 | O=C(O)Cn1c(=O)c(=O)[nH]c2ccc(Cl)cc21 | > 285
104 | COc1cccc2nc(C)n(C3CCC(=O)NC3=O)c(=O)c12 (centres undefined) | 274 to 276
